Source: patent US20160046618A1, “Cyclopropyl Fused Thiazin-2-Amine Compounds as Beta-Secretase Inhibitors and Methods of Use” (AMGEN INC., priority 2014, published 2016)
Read-outs that look alike come from different tables or passages of the source.

Experiments:
[1] = system: Aβ40 in conditioned medium of cells stably expressing Amyloid Precursor Protein (APP); experiment: In vitro BACE-1 cell-based assay (Aβ40 sandwich ELISA); conditions: BACE1 cell-based assay; read-out: IC50 IP (μM) BACE1 cell
Experimental: In Vitro BACE-1 Cell-Based Assay
The cell-based assay measures inhibition or reduction of Aβ40 in conditioned medium of test compound treated cells expressing amyloid precursor protein. Cells stably expressing Amyloid Precursor Protein (APP) were plated at a density of 40K cells/well in 96 well plates (Costar). The cells were cultivated for 24 hours at 37° C. and 5% CO2 in DMEM supplemented with 10% FBS. The test compounds were then added to cells in 10-point dose response concentrations with the starting concentration being either 100 μM or 10 μM. The compounds were diluted from stock solutions in DMSO and the final DMSO concentration of the test compounds on cells was 0.1%. After 24 h of incubation with the test compounds the supernatant conditioned media was collected and the Aβ40 levels were determined using a sandwich ELISA. The IC50 of the compound was calculated from the percent of control or percent inhibition of Aβ40 as a function of the concentration of the test compound.
The sandwich ELISA to detect Aβ40 was performed in 96 well microtiter plates, which were pre-treated with goat anti-rabbit IgG (Pierce). The capture and detecting antibody pair that were used to detect Aβ40 from cell supernatants were affinity purified pAb40 (Biosource) and biotinylated 6E10 (Signet Labs Inc.), respectively. The optimal concentration for the pAb40 antibody was 3 μg/ml in Superblock/TBS (Pierce) that was supplemented with 0.05% Tween 20 (Sigma). […] Cellular supernatants were incubated with the capture antibody for 3 h at 4° C., followed by 3 wash steps in TBS-tween (0.05%). The detecting antibody incubation was for 2 h at 4° C., again followed by the wash steps as described previously. The final readout of the ELISA is Time-Resolved Fluorescence (counts per minute) using Delfia reagents Streptavidin-Europium and Enhancement solutions (Perkin Elmer) and the Victor 2 multilabel counter (Perkin Elmer).

Recombinant Cat D = Recombinant Cat D (Homo sapiens (Human), UniProt P07339); experiment: In vitro enzymatic Cathepsin D (Cat D) FRET assay; format: biochemical
Recombinant Cat D, sequence (P07339 65-412): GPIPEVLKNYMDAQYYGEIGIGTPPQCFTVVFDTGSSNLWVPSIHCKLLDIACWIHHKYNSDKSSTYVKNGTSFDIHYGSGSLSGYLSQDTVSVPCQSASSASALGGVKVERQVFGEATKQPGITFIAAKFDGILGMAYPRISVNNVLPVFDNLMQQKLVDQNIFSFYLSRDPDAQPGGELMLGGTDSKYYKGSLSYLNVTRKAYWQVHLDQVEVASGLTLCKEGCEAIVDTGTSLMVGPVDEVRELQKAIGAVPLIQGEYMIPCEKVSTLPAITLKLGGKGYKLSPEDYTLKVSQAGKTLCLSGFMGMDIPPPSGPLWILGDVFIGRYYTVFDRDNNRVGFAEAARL
Experimental: In Vitro Enzymatic Cathepsin D (Cat D) FRET (Fluorescence Resonance Energy Transfer) Assay
Recombinant Cat D was expressed in CHO cells. The assay buffer for CathepsinD is 0.05 M citrate pH 3.5, 10% DMSO final, 5 mM CHAPS. […] The assays are effectively started by the addition of different FRET substrates (20 nM for Cat D) and the combination is incubated for one hour. The FRET assay is terminated with by addition of Tris buffer, which raises the pH to neutrality, and the fluorescence is determined. The FRET substrate is a peptide with commercially available fluorophore and quencher, on opposite sides of the BACE cleavage site. The Cat D substrate peptide sequence is based on sequence #1 of Table 1 from Gulnik et al. FEBS Letters v413 p 379-384 1997. Proteolytic cleavage of the FRET substrate releases quenching of fluorescence (Cat D excitation 500 nm and emission 580 nm).

human recombinant BACE2 = human recombinant BACE2 (Homo sapiens (Human), UniProt Q9Y5Z0); experiment: In vitro enzymatic BACE2 FRET assay; format: biochemical; conditions: BACE2 FRET enzyme assay; read-out: IC50 IP (μM) BACE2 enzyme
human recombinant BACE2, sequence (Q9Y5Z0 63-518): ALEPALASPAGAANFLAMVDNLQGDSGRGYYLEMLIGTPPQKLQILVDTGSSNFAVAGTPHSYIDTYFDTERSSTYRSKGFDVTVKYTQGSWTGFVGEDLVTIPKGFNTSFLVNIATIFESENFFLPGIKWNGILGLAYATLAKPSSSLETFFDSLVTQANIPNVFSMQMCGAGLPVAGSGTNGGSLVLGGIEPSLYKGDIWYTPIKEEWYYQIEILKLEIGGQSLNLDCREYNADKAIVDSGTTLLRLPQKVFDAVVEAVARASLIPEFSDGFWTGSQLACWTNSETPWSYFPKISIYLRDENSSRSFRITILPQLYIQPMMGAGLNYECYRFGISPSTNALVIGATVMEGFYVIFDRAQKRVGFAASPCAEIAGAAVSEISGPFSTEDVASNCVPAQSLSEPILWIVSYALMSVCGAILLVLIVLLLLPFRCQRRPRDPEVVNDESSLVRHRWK
Experimental: (§1) These recombinant proteins were further purified using Ni-NTA affinity chromatography (Qiagen). […] This assay is effectively started by the addition of FRET substrate (50 nM) and the combination is incubated for one hour. The FRET assay is terminated by addition of Tris buffer, which raises the pH to neutrality, and the fluorescence is determined. The FRET substrate is a peptide with commercially available fluorophore and quencher, on opposite sides of the BACE cleavage site. Proteolytic cleavage of the FRET substrate releases quenching of fluorescence (excitation 488 nm and emission 590 nm).

human recombinant BACE1 = human recombinant BACE1 (Homo sapiens (Human), UniProt P56817); experiment: In vitro enzymatic BACE1 FRET assay; format: biochemical; conditions: BACE1 FRET enzyme assay; read-out: IC50 IP (μM) BACE1 enzyme
human recombinant BACE1, sequence (P56817 46-501): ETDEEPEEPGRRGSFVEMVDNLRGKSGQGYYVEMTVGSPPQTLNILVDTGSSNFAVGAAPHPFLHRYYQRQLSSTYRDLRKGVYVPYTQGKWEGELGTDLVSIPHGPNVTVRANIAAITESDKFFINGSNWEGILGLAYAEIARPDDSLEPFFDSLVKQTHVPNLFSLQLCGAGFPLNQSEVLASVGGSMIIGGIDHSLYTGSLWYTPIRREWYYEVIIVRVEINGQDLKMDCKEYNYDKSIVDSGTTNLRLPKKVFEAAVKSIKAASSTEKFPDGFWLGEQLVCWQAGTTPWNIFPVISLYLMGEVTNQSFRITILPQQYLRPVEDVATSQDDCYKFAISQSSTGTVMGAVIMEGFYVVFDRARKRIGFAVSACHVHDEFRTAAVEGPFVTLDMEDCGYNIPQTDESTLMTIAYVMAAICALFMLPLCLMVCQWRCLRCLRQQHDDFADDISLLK
Experimental: as §1

[2] = Cathepsin D FRET enzyme assay, read-out: IC50 IP (μM) CatD

SMILES	IC50 [1] [µM]	IC50 (Recombinant Cat D; [2]) [µM]	IC50 (human recombinant BACE2) [µM]	IC50 (human recombinant BACE1) [µM]	IC50 (Recombinant Cat D; first procedure (FRET), read-out: Cat D IC50) [µM]
C[C@]1(c2cc(Nc3ncnc4cc(Cl)cnc34)cc(F)c2F)N=C(N)S[C@H]2C[C@H]21 [Example 34, N-(3-((1S,5S,6S)-3-amino-5-methyl-2-thia-4-azabicyclo[4.1.0]hept-3-en-5-yl)-4,5-difluorophenyl)-7-chloropyrido[3,2-d]pyrimidin-4-amine]	0.0317	295	0.0136	0.0198	
NC1=N[C@](CF)(c2cc(NC(=O)c3ccc(Cl)cn3)ccc2F)[C@@H]2C[C@]2(CO)S1 [Example 37, N-(3-((1S,5S,6S)-3-amino-5-(fluoromethyl)-1-(hydroxymethyl)-2-thia-4-azabicyclo[4.1.0]hept-3-en-5-yl)-4-fluorophenyl)-5-chloropicolinamide]	0.0014	> 400	0.00161	0.00332	
COC[C@]12C[C@H]1[C@@](CF)(c1cc(NC(=O)c3ccc(Cl)cn3)ccc1F)N=C(N)S2 [Example 40, N-(3-((1S,5S,6S)-3-amino-5-(fluoromethyl)-1-(methoxymethyl)-2-thia-4-azabicyclo[4.1.0]hept-3-en-5-yl)-4-fluorophenyl)-5-chloro-2-pyridinecarboxamide]	0.0065	2810	0.00121	0.00553	
NC1=N[C@](CF)(c2cc(NC(=O)c3ccc(Cl)cn3)ccc2F)[C@@H]2C[C@]2(CF)S1 [Example 41, N-(3-((1S,5S,6S)-3-amino-1,5-bis(fluoromethyl)-2-thia-4-azabicyclo[4.1.0]hept-3-en-5-yl)-4-fluorophenyl)-5-chloro-2-pyridinecarboxamide]	0.00596	> 400	< 0.00203	0.00227	
NC1=N[C@](CF)(c2cc(NC(=O)c3ccc(Cl)cn3)ccc2F)[C@H]2C[C@@]2(CO)S1 [Example 42, N-(3-((1R,5S,6R)-3-amino-5-(fluoromethyl)-1-(hydroxymethyl)-2-thia-4-azabicyclo[4.1.0]hept-3-en-5-yl)-4-fluorophenyl)-5-chloro-2-pyridinecarboxamide]	0.00576	95.6	0.0039	0.00601	
COC[C@]12C[C@H]1[C@@](CF)(c1cc(NC(=O)c3ccc(Cl)cn3)cc(F)c1F)N=C(N)S2 [Example 43, N-(3-((1S,5S,6S)-3-amino-5-(fluoromethyl)-1-(methoxymethyl)-2-thia-4-azabicyclo[4.1.0]hept-3-en-5-yl)-4,5-difluorophenyl)-5-chloro-2-pyridinecarboxamide]	0.00995	755	0.00163	0.00235	> 400
Cc1cc(C#N)cnc1C(=O)Nc1ccc(F)c([C@@]2(CF)N=C(N)S[C@@]3(CO)C[C@H]32)c1 [Example 44, N-(3-((1S,5S,6S)-3-amino-5-(fluoromethyl)-1-(hydroxymethyl)-2-thia-4-azabicyclo[4.1.0]hept-3-en-5-yl)-4-fluorophenyl)-5-cyano-3-methyl-2-pyridinecarboxamide]	0.00215	> 400	0.00147	0.00255	
COC[C@]12C[C@H]1[C@@](CF)(c1cc(Nc3nccc4cc(C#N)cnc34)cc(F)c1F)N=C(N)S2 [Example 47, 8-((3-((1S,5S,6S)-3-amino-5-(fluoromethyl)-1-(methoxymethyl)-2-thia-4-azabicyclo[4.1.0]hept-3-en-5-yl)-4,5-difluorophenyl)amino)-1,7-naphthyridine-3-carbonitrile]	0.0162	> 400	0.00187	0.00318	
N#Cc1cnc2c(Nc3cc(F)c(F)c([C@@]4(CF)N=C(N)S[C@@]5(CO)C[C@H]54)c3)nccc2c1 [Example 48, 8-((3-((1S,5S,6S)-3-amino-5-(fluoromethyl)-1-(hydroxymethyl)-2-thia-4-azabicyclo[4.1.0]hept-3-en-5-yl)-4,5-fluorophenyl)amino)-7-naphthyridine-3-carbonitrile]	0.0149	> 400	0.00323	0.00357	
N#Cc1cnc2c(Nc3ccc(F)c([C@@]4(CF)N=C(N)S[C@@]5(CO)C[C@H]54)c3)nccc2c1 [Example 50, 8-((3-((1S,5S,6S)-3-amino-5-(fluoromethyl)-1-(hydroxymethyl)-2-thia-4-azabicyclo[4.1.0]hept-3-en-5-yl)-4-fluorophenyl)amino)-1,7-naphthyridine-3-carbonitrile]	0.00505	> 133	0.00286	0.00225	
C#CCOc1cnc(C(=O)Nc2ccc(F)c([C@@]3(CF)N=C(N)S[C@@]4(CO)C[C@H]43)c2)cn1 [Example 53, N-(3-((1S,5S,6S)-3-amino-5-(fluoromethyl)-1-(hydroxymethyl)-2-thia-4-azabicyclo[4.1.0]hept-3-en-5-yl)-4-fluorophenyl)-5-(2-propyn-1-yloxy)-2-pyrazinecarboxamide]	0.00045	349	0.0156	0.00045	
C[C@]1(c2cc(Nc3ncnc4cc(C#N)cnc34)cc(F)c2F)N=C(N)S[C@@]2(CO)C[C@H]21 [Example 55, 4-((3-((1S,5S,6S)-3-amino-1-(hydroxymethyl)-5-methyl-2-thia-4-azabicyclo[4.1.0]hept-3-en-5-yl)-4,5-difluorophenyl)amino)pyrido[3,2-d]pyrimidine-7-carbonitrile]	0.00457	227	0.014	0.00399	
N#Cc1cnc2c(Nc3cc(F)c(F)c([C@@]4(CF)N=C(N)S[C@]5(CO)C[C@@H]54)c3)nccc2c1 [Example 57, 8-((3-((1R,5S,6R)-3-amino-5-(fluoromethyl)-1-(hydroxymethyl)-2-thia-4-azabicyclo[4.1.0]hept-3-en-5-yl)-4,5-difluorophenyl)amino)-1,7-naphthyridine-3-carbonitrile]	0.0225	29.5	0.0235	0.00563	
COc1cnc2c(Nc3cc(F)c(F)c([C@@]4(C)N=C(N)S[C@@]5(CO)C[C@H]54)c3)ncnc2c1 [Example 58, ((1S,5S,6S)-3-amino-5-(2,3-difluoro-5-((7-methoxypyrido[3,2-d]pyrimidin-4-yl)amino)phenyl)-5-methyl-2-thia-4-azabicyclo[4.1.0]hept-3-en-1-yl)methanol]	0.00306	975	0.0308	0.00397	
NC1=N[C@](CF)(c2cc(NC(=O)c3ccc(Cl)cn3)cc(F)c2F)[C@@H]2C[C@]2(CF)S1 [Example 59, N-(3-((1S,5S,6S)-3-amino-1,5-bis(fluoromethyl)-2-thia-4-azabicyclo[4.1.0]hept-3-en-5-yl)-4,5-difluorophenyl)-5-chloro-2-pyridinecarboxamide]	0.0229	> 400	< 0.00203	0.00114	
C[C@]1(c2cc(Nc3nccc4cc(C#N)cnc34)cc(F)c2F)N=C(N)S[C@@]2(CF)C[C@H]21 [Example 60, 8-((3-((1S,5S,6S)-3-amino-1-(fluoromethyl)-5-methyl-2-thia-4-azabicyclo[4.1.0]hept-3-en-5-yl)-4,5-difluorophenyl)amino)-1,7-naphthyridine-3-carbonitrile]	0.00767	204	0.00174	0.00135	
